Drawing on patent publication US20260327224A1, “SUBSTITUTED PYRIDOTRIAZOLE COMPOUND, AND PREPARATION METHOD THEREFOR AND USE THEREOF” (ORIGIANT PHARMACEUTICAL CO., LTD., priority 2023, published 2026), this text covers IC50 and EC50 for nine compounds.

One assay concerns the target T1, RIPK1 kinase (Homo sapiens, UniProt Q13546).
T1 construct: Eurofins
T1 sequence (Q13546 1-671): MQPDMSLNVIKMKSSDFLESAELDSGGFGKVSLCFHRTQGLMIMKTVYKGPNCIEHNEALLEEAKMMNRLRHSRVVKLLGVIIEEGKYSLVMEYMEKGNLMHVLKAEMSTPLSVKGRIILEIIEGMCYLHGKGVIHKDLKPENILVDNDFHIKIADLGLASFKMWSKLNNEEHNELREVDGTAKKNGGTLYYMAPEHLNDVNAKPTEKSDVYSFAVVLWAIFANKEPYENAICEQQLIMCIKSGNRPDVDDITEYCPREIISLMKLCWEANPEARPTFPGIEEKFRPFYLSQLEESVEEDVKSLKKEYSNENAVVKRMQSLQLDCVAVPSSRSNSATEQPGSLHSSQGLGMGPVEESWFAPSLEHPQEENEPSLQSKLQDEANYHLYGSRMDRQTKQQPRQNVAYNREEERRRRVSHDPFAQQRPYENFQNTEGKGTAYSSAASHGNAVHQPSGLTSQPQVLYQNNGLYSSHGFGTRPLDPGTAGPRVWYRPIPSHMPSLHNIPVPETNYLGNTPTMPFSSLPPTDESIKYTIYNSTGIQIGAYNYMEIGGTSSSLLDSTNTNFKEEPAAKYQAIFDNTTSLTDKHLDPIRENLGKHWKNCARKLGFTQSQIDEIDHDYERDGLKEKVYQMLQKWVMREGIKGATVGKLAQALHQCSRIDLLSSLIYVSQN
Briefly: In vitro RIPK1 kinase assay (Eurofins Kinase Profiler). Type of assay: biochemical. The settings on record: Inhibitory Activity Against RIPK1 Kinase.
Method: In Vitro RIPK1 Kinase Assay:
This assay was completed using the Kinase Profiler service provided by Eurofins. The experimental method was as follows: The small molecule compound to be tested (0.001-10 M) and the protein kinase to be tested were incubated with a buffer containing a substrate, 10 mM magnesium acetate, and [γ-^33P-ATP]. The reaction was initiated by adding a Mg\ATPmix. After incubation at room temperature for a period of time, a 3% phosphate solution was added to the buffer to terminate the reaction. Subsequently, 10 μL of the reaction mixture was quantitatively pipetted and dropped onto P30 filter paper. The paper was washed three times with 75 mM phosphate solution and once with methanol. After drying, scintillation fluid was added for scinticounting. The inhibitory activity of the compound was expressed as the half-maximal inhibitory concentration (IC50). The IC50 values were derived by fitting the inhibition rates corresponding to the respective concentration gradients.
For orientation: IC50 means the point on the concentration scale where inhibition reaches its midpoint. The low end stands for greater potency in that assay, the high end for weaker potency in that assay. `C[C@H](NC(=O)c1cn(C)c2ccc(-c3ccn4nc(NC(=O)CN5CCOCC5(C)C)nc4c3)cc12)c1ccc(F)cc1` [Compound 32] yielded an IC50 of 10 to 100 nM.

Another assay concerns HT-29 cells (colon cancer cells). In words: In vitro assay for protection of HT-29 cells from necroptosis (TNFα/Smac mimetic/Z-VAD-FMK, CCK-8). Type of assay: cell-based. The settings on record: Homo sapiens, Protective Activity Against Necroptosis, TNFα/Smac mimetic/Z-VAD-FMK induced, 24 h. The method in brief:
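Cells seeded overnight received compound in triplicate, then were induced with TNFα/Smac mimetic/Z-VAD-FMK for 24 h. Viability was read by CCK-8 absorbance at 495 nm after 1-3 h; protection rate normalized to solvent and medium-only controls, EC50 from fitted curve.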
The term EC50 denotes the concentration at which the effect is half-maximal. Regarding `C[C@H](NC(=O)c1cn(C)c2ccc(-c3ccn4nc(NC(=O)CN5CCOCC5(C)C)nc4c3)cc12)c1ccc(F)cc1` [Compound 32], the EC50 is below 1 nM.

Take `Cn1cc(C2=NC(c3ccc(F)cc3)CO2)c2cc(-c3ccn4nc(NC(=O)C5CC5)nc4c3)ccc21` (stereo not shown) [Compound 212]: the EC50 lay in the range of 10 to 100 nM.

In the case of `Cn1cc(C(=O)Nc2nc3cc(-c4ccc5c(c4)c(C4=NC(c6ccc(F)cc6)CO4)cn5C)ccn3n2)cn1` (stereo not shown) [Compound 213], the EC50 fell in the range of 10 to 100 nM.

For the compound `COCCn1cc(C(=O)N[C@@H](CF)c2ccc(F)cc2)c2cc(-c3ccn4nc(NC(=O)N5CCOCC5)nc4c3)ccc21` [Compound 214], the EC50 was in the range of 10 to 100 nM.

On to `COCCn1cc(C(=O)N[C@@H](CF)c2ccc(F)cc2)c2cc(-c3ccn4nc(NC(=O)CC#N)nc4c3)ccc21` [Compound 215], for which the EC50 was in the range of 10 to 100 nM.

Take `COC(C)C(=O)Nc1nc2cc(-c3ccc4c(c3)c(-c3nncn3C(C)c3ccc(F)cc3)cn4C)ccn2n1` (stereo not shown) [Compound 216]: the EC50 fell in the range of 10 to 100 nM.

Turning to `CC(c1ccc(F)cc1)n1cnnc1-c1cn(C)c2ccc(-c3ccn4nc(NC(=O)C5CCOC5)nc4c3)cc12` (stereo not shown) [Compound 217], the EC50 lay within 10 to 100 nM.

As for `C[C@H](NC(=O)c1cn(C)c2ccc(-c3ccn4nc(N5CCOCC5=O)nc4c3)cc12)c1ccc(F)cc1` [Compound 218], the EC50 was 10 to 100 nM.

Take `C[C@H](NC(=O)c1cn(C)c2ccc(-c3ccn4nc(N5CCOCC5)nc4c3)cc12)c1ccc(F)cc1` [Compound 219]: the EC50 was in the range of 1 to 10 nM.
